Activity calls are given as the source filed them. The calls are words filed in the database; no cut-off is given here.
What was measured:
Caviid betaherpesvirus 2 [1] = assay: Antiviral activity against Guinea pig cytomegalovirus strain 22122 infected in second and third trimesters of pregnant Hartley guinea pig assessed as dam liver with detectable viral DNA at 4 mg/kg, po qd for 9 days measured 10 days post infection by real-time PCR (reference value: 100%); format: functional
Caviid betaherpesvirus 2 [2] = assay: Antiviral activity against Guinea pig cytomegalovirus strain 22122 infected in second and third trimesters of pregnant Hartley guinea pig assessed as fetus spleen with detectable viral DNA at 4 mg/kg, po qd for 5 days measured 10 days post infection by real-time PCR (reference value: 47%); format: functional
Caviid betaherpesvirus 2 [3] = assay: Antiviral activity against Guinea pig cytomegalovirus strain 22122 infected in second and third trimesters of pregnant Hartley guinea pig assessed as reduction in viral DNA level in pup liver at 20 mg/kg, po once at 24 hrs post infection and once at 7 days post infection relative to control pup; format: functional
Caviid betaherpesvirus 2 [4] = assay: Antiviral activity against Guinea pig cytomegalovirus strain 22122 infected in second and third trimesters of pregnant Hartley guinea pig assessed as pregnancy outcome measured as live-born pups at 20 mg/kg, po once at 24 hrs post infection and once 7 days post infection; format: functional
Cavia porcellus [5] = assay: Toxicity in Guinea pig cytomegalovirus strain 22122 infected second and third trimesters of pregnant Hartley guinea pig assessed as animal weight loss at 20 mg/kg, po once at 24 hrs post infection and once 7 days post infection; format: organism-based; set-up: dose 20 mg/kg, route oral; conditions: in vivo
Cavia porcellus [6] = assay: Toxicity in Guinea pig cytomegalovirus strain 22122 infected second and third trimesters of pregnant Hartley guinea pig assessed as pup kidney toxicity at 4 mg/kg, po treatment started at 24 hrs post infection for 9 consecutive days; format: organism-based; set-up: dose 4 mg/kg, route oral; conditions: in vivo
Caviid betaherpesvirus 2 [7] = assay: Antiviral activity against Guinea pig cytomegalovirus strain 22122 infected in second and third trimesters of pregnant Hartley guinea pig assessed as fetus spleen with detectable viral DNA at 4 mg/kg, po qd for 9 days measured 10 days post infection by real-time PCR (reference value: 47%); format: functional
[8] = Selectivity index, ratio of CC50 for guinea pig CCL158 cells to IC50 for Guinea pig cytomegalovirus strain 22122; format: functional
Cavia porcellus [9] = assay: Toxicity in Guinea pig cytomegalovirus strain 22122 infected second and third trimesters of pregnant Hartley guinea pig assessed as adverse effect on complete blood count in new born pups at 4 mg/kg, po treatment started at 24 hrs post infection for 9 consecutive days; format: organism-based; set-up: dose 4 mg/kg, route oral; conditions: in vivo
Cavia porcellus [10] = assay: Toxicity in Guinea pig cytomegalovirus strain 22122 infected second and third trimesters of pregnant Hartley guinea pig assessed as animal weight loss at 4 mg/kg, po treatment started at 24 hrs post infection for 5 consecutive days; format: organism-based; set-up: dose 4 mg/kg, route oral; conditions: in vivo
Caviid betaherpesvirus 2 [11] = assay: Antiviral activity against Guinea pig cytomegalovirus strain 22122 infected in second and third trimesters of pregnant Hartley guinea pig assessed as pup spleen containing detectable viral DNA at 20 mg/kg, po once at 24 hrs post infection and once at 7 days post infection (reference value: 44%); format: functional
Caviid betaherpesvirus 2 [12] = assay: Antiviral activity against Guinea pig cytomegalovirus strain 22122 infected in second and third trimesters of pregnant Hartley guinea pig assessed as reduction in dam viremia at 4 mg/kg, po qd for 5 days; format: functional, organism-based; set-up: dose 4 mg/kg; conditions: Guinea pig cytomegalovirus (strain 22122 / ATCC VR682) (GPCMV)
Caviid betaherpesvirus 2 [13] = assay: Antiviral activity against Guinea pig cytomegalovirus strain 22122 infected guinea pig CCL158 cells assessed as plaque reduction measured after 10 days by plaque reduction assay; format: functional, organism-based; conditions: Caviid betaherpesvirus 2, CCL158, 240 h
Cavia porcellus [14] = assay: Toxicity in Guinea pig cytomegalovirus strain 22122 infected second and third trimesters of pregnant Hartley guinea pig assessed as low birth weight pups at 4 mg/kg, po treatment started at 24 hrs post infection for 5 consecutive days (reference value: 107 +/- 10 g); format: organism-based; set-up: dose 4 mg/kg, route oral; conditions: in vivo
Caviid betaherpesvirus 2 [15] = assay: Antiviral activity against Guinea pig cytomegalovirus strain 22122 infected in second and third trimesters of pregnant Hartley guinea pig assessed as increase in pup survival at 20 mg/kg, po once at 24 hrs post infection and once at 7 days post infection; format: functional, organism-based; set-up: dose 20 mg/kg; conditions: Guinea pig cytomegalovirus (strain 22122 / ATCC VR682) (GPCMV)
Caviid betaherpesvirus 2 [16] = assay: Antiviral activity against Guinea pig cytomegalovirus strain 22122 infected in second and third trimesters of pregnant Hartley guinea pig assessed as dam liver with detectable viral DNA at 4 mg/kg, po qd for 5 days measured 10 days post infection by real-time PCR (reference value: 100%); format: functional
Caviid betaherpesvirus 2 [17] = assay: Antiviral activity against Guinea pig cytomegalovirus strain 22122 infected in second and third trimesters of pregnant Hartley guinea pig assessed as dam spleen with detectable viral DNA at 4 mg/kg, po qd for 9 days measured 10 days post infection by real-time PCR (reference value: 100%); format: functional
Caviid betaherpesvirus 2 [18] = assay: (§1) Antiviral activity against Guinea pig cytomegalovirus strain 22122 infected in second and third trimesters of pregnant Hartley guinea pig assessed as fetus spleen viral log10 genome copies/ug of DNA at 4 mg/kg, po qd for 5 days measured 10 days post infection by real-time PCR (reference value: 1.63 +/- 0.6 log10 genome copies/ug of DNA); format: functional
[19] = Cytotoxicity against guinea pig CCL158 cells after 10 days by crystal violet staining; format: cell-based, Cavia porcellus
Caviid betaherpesvirus 2 [20] = assay: Antiviral activity against Guinea pig cytomegalovirus strain 22122 infected in second and third trimesters of pregnant Hartley guinea pig assessed as pregnancy outcome measured as live-born pups at 4 mg/kg, po treatment started at 24 hrs post infection for 5 consecutive days (reference value: 62.5%); format: functional
Caviid betaherpesvirus 2 [21] = assay: Antiviral activity against Guinea pig cytomegalovirus strain 22122 infected in second and third trimesters of pregnant Hartley guinea pig assessed as dam spleen with detectable viral DNA at 4 mg/kg, po qd for 5 days measured 10 days post infection by real-time PCR (reference value: 100%); format: functional
Caviid betaherpesvirus 2 [22] = assay: Antiviral activity against Guinea pig cytomegalovirus strain 22122 infected in second and third trimesters of pregnant Hartley guinea pig assessed as pup liver containing detectable viral DNA at 20 mg/kg, po once at 24 hrs post infection and once at 7 days post infection (reference value: 73%); format: functional
Caviid betaherpesvirus 2 [23] = assay: as §1, with “liver” for “spleen”, “2.20” for “1.63”; format: functional
Caviid betaherpesvirus 2 [24] = assay: Antiviral activity against Guinea pig cytomegalovirus strain 22122 infected in second and third trimesters of pregnant Hartley guinea pig assessed as fetus liver with detectable viral DNA at 4 mg/kg, po qd for 9 days measured 10 days post infection by real-time PCR (reference value: 87%); format: functional
Cavia porcellus [25] = assay: Toxicity in Guinea pig cytomegalovirus strain 22122 infected second and third trimesters of pregnant Hartley guinea pig assessed as decreased animal activity at 4 mg/kg, po treatment started at 24 hrs post infection for 5 consecutive days; format: organism-based; set-up: dose 4 mg/kg, route oral; conditions: in vivo
Caviid betaherpesvirus 2 [26] = assay: Antiviral activity against Guinea pig cytomegalovirus strain 22122 infected in second and third trimesters of pregnant Hartley guinea pig assessed as dam placenta with detectable viral DNA at 4 mg/kg, po qd for 9 days measured 10 days post infection by real-time PCR (reference value: 100%); format: functional
Caviid betaherpesvirus 2 [27] = assay: Antiviral activity against Guinea pig cytomegalovirus strain 22122 infected in second and third trimesters of pregnant Hartley guinea pig assessed as dam placenta with detectable viral DNA at 4 mg/kg, po qd for 5 days measured 10 days post infection by real-time PCR (reference value: 100%); format: functional
Caviid betaherpesvirus 2 [28] = assay: as §1, with “dam” for “fetus”, “9” for “5”, “4.12” for “1.63”, “0.3” for “0.6”; format: functional
Caviid betaherpesvirus 2 [29] = assay: as §1, with “dam” for “fetus”, “4.12” for “1.63”, “0.3” for “0.6”; format: functional
Cavia porcellus [30] = assay: Toxicity in Guinea pig cytomegalovirus strain 22122 infected second and third trimesters of pregnant Hartley guinea pig assessed as adverse effect on complete blood count at 4 mg/kg, po treatment started at 24 hrs post infection for 9 consecutive days; format: organism-based; set-up: dose 4 mg/kg, route oral; conditions: in vivo
Caviid betaherpesvirus 2 [31] = assay: as §1, with “dam liver” for “fetus spleen”, “9” for “5”, “4.82” for “1.63”, “0.8” for “0.6”; format: functional
Caviid betaherpesvirus 2 [32] = assay: Antiviral activity against Guinea pig cytomegalovirus strain 22122 infected in second and third trimesters of pregnant Hartley guinea pig assessed as fetus liver with detectable viral DNA at 4 mg/kg, po qd for 5 days measured 10 days post infection by real-time PCR (reference value: 87%); format: functional
Caviid betaherpesvirus 2 [33] = assay: Antiviral activity against Guinea pig cytomegalovirus strain 22122 infected in second and third trimesters of pregnant Hartley guinea pig assessed as reduction in viral DNA level in dam spleen at 20 mg/kg, po once at 24 hrs post infection and once at 7 days post infection relative to dam control; format: functional
Caviid betaherpesvirus 2 [34] = assay: Antiviral activity against Guinea pig cytomegalovirus strain 22122 infected in second and third trimesters of pregnant Hartley guinea pig assessed as reduction in dam blood viral log10 genome copies/ug of DNA at 20 mg/kg, po once at 24 hrs post infection and once at 7 days post infection (reference value: 3.22 +/- 0.2 log10 genome copies/ug DNA); format: functional
Cavia porcellus [35] = assay: Toxicity in Guinea pig cytomegalovirus strain 22122 infected second and third trimesters of pregnant Hartley guinea pig assessed as decreased animal activity at 20 mg/kg, po once at 24 hrs post infection and once 7 days post infection; format: organism-based; set-up: dose 20 mg/kg, route oral; conditions: in vivo
Caviid betaherpesvirus 2 [36] = assay: Antiviral activity against Guinea pig cytomegalovirus strain 22122 infected in second and third trimesters of pregnant Hartley guinea pig assessed as reduction in pups with detectable viral DNA at 20 mg/kg, po once at 24 hrs post infection and once at 7 days post infection; format: functional, organism-based; set-up: dose 20 mg/kg; conditions: Guinea pig cytomegalovirus (strain 22122 / ATCC VR682) (GPCMV)
Caviid betaherpesvirus 2 [37] = assay: as §1, with “liver” for “spleen”, “9” for “5”, “2.20” for “1.63”; format: functional
Cavia porcellus [38] = assay: Toxicity in Guinea pig cytomegalovirus strain 22122 infected second and third trimesters of pregnant Hartley guinea pig assessed as low birth weight pups at 20 mg/kg, po once at 24 hrs post infection and once 7 days post infection (reference value: 107 +/- 10 g); format: organism-based; set-up: dose 20 mg/kg, route oral; conditions: in vivo
Caviid betaherpesvirus 2 [39] = assay: as §1, with “9” for “5”; format: functional
Caviid betaherpesvirus 2 [40] = assay: as §1, with “dam liver” for “fetus spleen”, “4.82” for “1.63”, “0.8” for “0.6”; format: functional
Caviid betaherpesvirus 2 [41] = assay: Antiviral activity against Guinea pig cytomegalovirus strain 22122 infected in second and third trimesters of pregnant Hartley guinea pig assessed as reduction in viral DNA level in dam liver at 20 mg/kg, po once at 24 hrs post infection and once at 7 days post infection relative to dam control; format: functional
Cavia porcellus [42] = assay: Toxicity in Guinea pig cytomegalovirus strain 22122 infected second and third trimesters of pregnant Hartley guinea pig assessed as dam kidney toxicity at 4 mg/kg, po treatment started at 24 hrs post infection for 9 consecutive days; format: organism-based; set-up: dose 4 mg/kg, route oral; conditions: in vivo
Cavia porcellus [43] = assay: Toxicity in Guinea pig cytomegalovirus strain 22122 infected second and third trimesters of pregnant Hartley guinea pig assessed as pup liver toxicity at 4 mg/kg, po treatment started at 24 hrs post infection for 9 consecutive days; format: organism-based; set-up: dose 4 mg/kg, route oral; conditions: in vivo
Cavia porcellus [44] = assay: Toxicity in Guinea pig cytomegalovirus strain 22122 infected second and third trimesters of pregnant Hartley guinea pig assessed as dam liver toxicity at 4 mg/kg, po treatment started at 24 hrs post infection for 9 consecutive days; format: organism-based; set-up: dose 4 mg/kg, route oral; conditions: in vivo
Caviid betaherpesvirus 2 [45] = assay: Antiviral activity against Guinea pig cytomegalovirus strain 22122 infected in second and third trimesters of pregnant Hartley guinea pig assessed as reduction in viral DNA level in pup spleen at 20 mg/kg, po once at 24 hrs post infection and once at 7 days post infection relative to control pup; format: functional

Compound: CCCCCCCCCCCCCCCCOCCCOP(=O)(O)CO[C@H](CO)Cn1ccc(N)nc1=O [BRINCIDOFOVIR]
- Activity (Caviid betaherpesvirus 2 [1]): 100%
- Activity (Caviid betaherpesvirus 2 [2]): 77%
- fold change (FC) (Caviid betaherpesvirus 2 [3]): 10.5
- Activity (Caviid betaherpesvirus 2 [4]): 93.8%
- Activity (Cavia porcellus [5]): Non-toxic
- Activity (Cavia porcellus [6]): Non-toxic
- Activity (Caviid betaherpesvirus 2 [7]): 62%
- Selectivity Index [8]: >25000
- Activity (Cavia porcellus [9]): Non-toxic
- Activity (Cavia porcellus [10]): Non-toxic
- Activity (Caviid betaherpesvirus 2 [11]): 25%
- Activity (Caviid betaherpesvirus 2 [12]): Active
- EC50 (Caviid betaherpesvirus 2 [13]): 4 nM
- Activity (Cavia porcellus [14]): 103 g
- Activity (Caviid betaherpesvirus 2 [15]): Active
- Activity (Caviid betaherpesvirus 2 [16]): 100%
- Activity (Caviid betaherpesvirus 2 [17]): 100%
- Activity (Caviid betaherpesvirus 2 [18]): 1.91
- CC50 at 240 h [19]: > 100000 nM
- Activity (Caviid betaherpesvirus 2 [20]): 100%
- Activity (Caviid betaherpesvirus 2 [21]): 100%
- Activity (Caviid betaherpesvirus 2 [22]): 57%
- Activity (Caviid betaherpesvirus 2 [23]): 2.12
- Activity (Caviid betaherpesvirus 2 [24]): 85%
- Activity (Cavia porcellus [25]): Non-toxic
- Activity (Caviid betaherpesvirus 2 [26]): 100%
- Activity (Caviid betaherpesvirus 2 [27]): 100%
- Activity (Caviid betaherpesvirus 2 [28]): 2.09
- Activity (Caviid betaherpesvirus 2 [29]): 2.77
- Activity (Cavia porcellus [30]): Non-toxic
- Activity (Caviid betaherpesvirus 2 [31]): 3.01
- Activity (Caviid betaherpesvirus 2 [32]): 92%
- fold change (FC) (Caviid betaherpesvirus 2 [33]): 5
- Activity (Caviid betaherpesvirus 2 [34]): 2.88
- Activity (Cavia porcellus [35]): Non-toxic
- Activity (Caviid betaherpesvirus 2 [36]): Active
- Activity (Caviid betaherpesvirus 2 [37]): 1.87
- Activity (Cavia porcellus [38]): 103 g
- Activity (Caviid betaherpesvirus 2 [39]): 1.65
- Activity (Caviid betaherpesvirus 2 [40]): 2.98
- fold change (FC) (Caviid betaherpesvirus 2 [41]): 6.5
- Activity (Cavia porcellus [42]): Non-toxic
- Activity (Cavia porcellus [43]): Non-toxic
- Activity (Cavia porcellus [44]): Non-toxic
- fold change (FC) (Caviid betaherpesvirus 2 [45]): 6
